Test results reported in US20240158370A1, “CK1 alpha AND DUAL CK1 alpha / GSPT1 DEGRADING COMPOUNDS” (Innovo Therapeutics, Inc., priority 2022, published 2024).

Experiments:
[1] = molecular target: GSPT1 (Homo sapiens, UniProt P15170+Q96SW2); test: HiBiT degradation assay, GSPT1, Procedure A; type: cell-based; parameters: HiBit-GSPT1 KI HEK293(LgBit) Cells; host or cells: HEK293(LgBit) knock-in cells; conditions: six hours incubation
Method in brief: (§1)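 Luminescence from HiBiT lytic detection reports remaining tagged protein after cells sit six hours at 37° C with compound across ten concentrations (10 μM down to 0.005 μM, 0.1% DMSO). A 4-parameter curve fit gives DC50 and Ymin.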

[2] = molecular target: T1, CK1α (Homo sapiens, UniProt P48729+Q96SW2); test: HiBiT degradation assay, CK1α, Procedure A; type: cell-based; conditions: six hours incubation
T1 construct: CSNK1A1-HiBit KI HEK293(LgBit) Cells; host or cells: HEK293(LgBit) knock-in cells
Method in brief: as §1

Sequence of GSPT1 (P15170 whole entry): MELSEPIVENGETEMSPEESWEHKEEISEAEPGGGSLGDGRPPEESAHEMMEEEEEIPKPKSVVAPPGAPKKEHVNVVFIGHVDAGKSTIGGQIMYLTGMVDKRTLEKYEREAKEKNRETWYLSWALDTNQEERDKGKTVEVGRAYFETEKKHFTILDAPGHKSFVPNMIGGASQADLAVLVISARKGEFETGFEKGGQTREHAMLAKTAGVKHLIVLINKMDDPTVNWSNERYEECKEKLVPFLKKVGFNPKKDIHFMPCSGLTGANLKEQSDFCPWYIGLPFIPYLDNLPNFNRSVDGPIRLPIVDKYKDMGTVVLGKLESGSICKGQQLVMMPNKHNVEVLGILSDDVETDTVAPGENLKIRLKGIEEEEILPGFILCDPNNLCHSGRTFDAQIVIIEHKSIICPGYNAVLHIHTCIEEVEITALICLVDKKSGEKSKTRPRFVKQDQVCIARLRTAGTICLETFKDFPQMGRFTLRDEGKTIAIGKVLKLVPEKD
Sequence of GSPT1 (Q96SW2 whole entry): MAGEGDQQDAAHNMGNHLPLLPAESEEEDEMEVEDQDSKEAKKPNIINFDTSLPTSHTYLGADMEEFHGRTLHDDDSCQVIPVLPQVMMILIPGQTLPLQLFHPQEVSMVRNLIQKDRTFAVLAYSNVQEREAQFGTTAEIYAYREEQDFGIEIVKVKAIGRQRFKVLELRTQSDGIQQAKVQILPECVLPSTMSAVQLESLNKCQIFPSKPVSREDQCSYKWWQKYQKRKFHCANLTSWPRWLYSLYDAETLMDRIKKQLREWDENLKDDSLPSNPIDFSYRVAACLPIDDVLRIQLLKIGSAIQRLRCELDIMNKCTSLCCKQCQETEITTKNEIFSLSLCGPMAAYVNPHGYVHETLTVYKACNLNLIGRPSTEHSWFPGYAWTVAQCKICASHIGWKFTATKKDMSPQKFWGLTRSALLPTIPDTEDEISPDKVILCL
Sequence of GSPT1 (Q16531 whole entry partner): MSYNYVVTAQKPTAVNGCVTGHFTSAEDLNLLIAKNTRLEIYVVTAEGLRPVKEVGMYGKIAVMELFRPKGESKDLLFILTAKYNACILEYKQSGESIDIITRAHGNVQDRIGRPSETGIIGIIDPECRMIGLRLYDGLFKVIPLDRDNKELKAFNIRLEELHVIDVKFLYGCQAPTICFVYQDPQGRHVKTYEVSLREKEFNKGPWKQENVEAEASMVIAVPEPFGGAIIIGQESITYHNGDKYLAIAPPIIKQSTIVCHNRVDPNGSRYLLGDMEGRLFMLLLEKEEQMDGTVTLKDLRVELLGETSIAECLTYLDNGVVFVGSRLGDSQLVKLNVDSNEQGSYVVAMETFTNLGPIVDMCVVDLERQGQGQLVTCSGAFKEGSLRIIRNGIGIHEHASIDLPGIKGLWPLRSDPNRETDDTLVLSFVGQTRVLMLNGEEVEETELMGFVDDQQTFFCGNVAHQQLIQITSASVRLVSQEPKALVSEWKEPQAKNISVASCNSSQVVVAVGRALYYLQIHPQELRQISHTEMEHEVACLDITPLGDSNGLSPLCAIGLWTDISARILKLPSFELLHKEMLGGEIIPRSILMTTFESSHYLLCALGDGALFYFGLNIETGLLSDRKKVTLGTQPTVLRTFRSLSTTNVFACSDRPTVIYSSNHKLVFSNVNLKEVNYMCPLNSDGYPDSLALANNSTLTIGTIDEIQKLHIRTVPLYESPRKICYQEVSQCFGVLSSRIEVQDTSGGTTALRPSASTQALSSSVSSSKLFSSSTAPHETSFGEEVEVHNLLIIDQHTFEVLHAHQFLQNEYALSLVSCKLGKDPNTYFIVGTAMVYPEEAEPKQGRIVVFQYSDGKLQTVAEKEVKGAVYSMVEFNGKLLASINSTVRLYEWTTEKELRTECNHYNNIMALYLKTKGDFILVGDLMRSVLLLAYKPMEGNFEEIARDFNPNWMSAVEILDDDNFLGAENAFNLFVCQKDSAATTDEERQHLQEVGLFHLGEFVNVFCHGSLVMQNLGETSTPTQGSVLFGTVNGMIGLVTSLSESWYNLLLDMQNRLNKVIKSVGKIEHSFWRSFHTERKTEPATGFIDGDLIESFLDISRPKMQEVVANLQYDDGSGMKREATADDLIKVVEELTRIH
T1 sequence (P48729 whole entry): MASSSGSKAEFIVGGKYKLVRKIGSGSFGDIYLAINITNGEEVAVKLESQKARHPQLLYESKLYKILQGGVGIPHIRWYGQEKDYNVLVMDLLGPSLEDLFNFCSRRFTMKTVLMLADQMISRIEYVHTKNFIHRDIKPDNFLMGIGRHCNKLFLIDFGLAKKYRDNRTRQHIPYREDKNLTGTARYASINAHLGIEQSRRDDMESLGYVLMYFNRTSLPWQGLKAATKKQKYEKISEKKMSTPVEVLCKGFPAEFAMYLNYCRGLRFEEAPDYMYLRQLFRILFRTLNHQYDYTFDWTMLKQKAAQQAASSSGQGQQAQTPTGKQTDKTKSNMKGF
T1 sequence (Q96SW2 whole entry): as the sequence (Q96SW2 whole entry) above
T1 sequence (Q16531 whole entry partner): as the sequence (Q16531 whole entry partner) above

SMILES	DC50 [1] [nM]	GSPT1 Ymin [1]	CK1α Ymin [2]	DC50 [2] [nM]
Cn1ncc(-c2ccc3c(c2)CN(C2CCC(=O)NC2=O)C3=O)c1-c1ccc(CO)cc1 (centres unmarked) [Example 156]	≥ 25	F (F = >75-100% remaining)	D (D = >10- 25% remaining)	≥ 25
Cc1ccc(-c2c(-c3ccc4c(c3)CN(C3CCC(=O)NC3=O)C4=O)cnn2C)cc1CO (centres unmarked) [Example 157]	≥ 25	F (F = >75-100% remaining)	E (E = >25-75% remaining)	≥ 25
Cn1ncc(-c2ccc3c(c2)CN(C2CCC(=O)NC2=O)C3=O)c1-c1cccc(CN2CCCC2)c1 (centres unmarked) [Example 158]	≥ 25	F (F = >75-100% remaining)	E (E = >25-75% remaining)	≥ 25
Cn1ncc(-c2ccc3c(c2)CN(C2CCC(=O)NC2=O)C3=O)c1-c1ccc(N2CCCC2)cc1 (centres unmarked) [Example 159]	≥ 25	F (F = >75-100% remaining)	D (D = >10- 25% remaining)	< 25
Cn1ncc(-c2ccc3c(c2)CN(C2CCC(=O)NC2=O)C3=O)c1-c1ccc(S(=O)(=O)NC2CCCCC2)cc1 (centres unmarked) [Example 160]	≥ 25	C (C = 0-10% remaining)	E (E = >25-75% remaining)	≥ 25
Cc1ccccc1-c1c(-c2ccc3c(c2)CN(C2CCC(=O)NC2=O)C3=O)ncn1C (centres unmarked) [Example 161]	≥ 25	F (F = >75-100% remaining)	D (D = >10- 25% remaining)	< 25
Cc1cccc(-c2c(-c3ccc4c(c3)CN(C3CCC(=O)NC3=O)C4=O)ncn2C)c1 (centres unmarked) [Example 162]	< 25	E (E = >25-75% remaining)	C (C = 0-10% remaining)	< 25
Cn1cnc(-c2ccc3c(c2)CN(C2CCC(=O)NC2=O)C3=O)c1-c1ccc(O)cc1 (centres unmarked) [Example 163]	≥ 25	E (E = >25-75% remaining)	C (C = 0-10% remaining)	< 25
Cn1cnc(-c2ccc3c(c2)CN(C2CCC(=O)NC2=O)C3=O)c1-c1ccccc1F (centres unmarked) [Example 164]	< 25	E (E = >25-75% remaining)	C (C = 0-10% remaining)	< 25
Cn1cnc(-c2ccc3c(c2)CN(C2CCC(=O)NC2=O)C3=O)c1-c1ccc(C#N)cc1 (centres unmarked) [Example 165]	≥ 25	F (F = >75-100% remaining)	D (D = >10- 25% remaining)	< 25
Cc1ccc(-c2c(-c3ccc4c(c3)CN(C3CCC(=O)NC3=O)C4=O)ncn2C)c(C)c1 (centres unmarked) [Example 166]	≥ 25	E (E = >25-75% remaining)	E (E = >25-75% remaining)	< 25
Cc1cccc(-c2c(-c3ccc4c(c3)CN(C3CCC(=O)NC3=O)C4=O)ncn2C)c1C (centres unmarked) [Example 167]	< 25	F (F = >75-100% remaining)	E (E = >25-75% remaining)	< 25
Cc1c(F)cccc1-c1c(-c2ccc3c(c2)CN(C2CCC(=O)NC2=O)C3=O)ncn1C (centres unmarked) [Example 169]	≥ 25	F (F = >75-100% remaining)	E (E = >25-75% remaining)	< 25
Cc1ccc(F)c(-c2c(-c3ccc4c(c3)CN(C3CCC(=O)NC3=O)C4=O)ncn2C)c1 (centres unmarked) [Example 170]	≥ 25	F (F = >75-100% remaining)	D (D = >10- 25% remaining)	< 25
Cc1cccc(-c2c(-c3ccc4c(c3)CN(C3CCC(=O)NC3=O)C4=O)ncn2C)c1F (centres unmarked) [Example 171]	< 25	F (F = >75-100% remaining)	D (D = >10- 25% remaining)	< 25
Cc1cccc(F)c1-c1c(-c2ccc3c(c2)CN(C2CCC(=O)NC2=O)C3=O)ncn1C (centres unmarked) [Example 172]	≥ 25	F (F = >75-100% remaining)	E (E = >25-75% remaining)	< 25
Cn1ncc(-c2ccc3c(c2)CN(C2CCC(=O)NC2=O)C3=O)c1-c1cccc(Cl)c1 (centres unmarked) [Example 173]	≥ 25	F (F = >75-100% remaining)	E (E = >25-75% remaining)	< 25
Cn1ncc(-c2ccc3c(c2)CN(C2CCC(=O)NC2=O)C3=O)c1-c1ccc(Cl)cc1 (centres unmarked) [Example 174]	< 25	E (E = >25-75% remaining)	D (D = >10- 25% remaining)	< 25
Cn1cnc(-c2ccc3c(c2)CN(C2CCC(=O)NC2=O)C3=O)c1-c1ccccc1Cl (centres unmarked) [Example 175]	≥ 25	F (F = >75-100% remaining)	D (D = >10- 25% remaining)	< 25
Cn1cnc(-c2ccc3c(c2)CN(C2CCC(=O)NC2=O)C3=O)c1-c1ccc(F)cc1F (centres unmarked) [Example 176]	< 25	E (E = >25-75% remaining)	D (D = >10- 25% remaining)	< 25
Cn1cnc(-c2ccc3c(c2)CN(C2CCC(=O)NC2=O)C3=O)c1-c1ccc(F)c(F)c1 (centres unmarked) [Example 177]	< 25	E (E = >25-75% remaining)	D (D = >10- 25% remaining)	< 25
Cn1ncc(-c2ccc3c(c2)CN(C2CCC(=O)NC2=O)C3=O)c1-c1cc(F)cc(F)c1 (centres unmarked) [Example 178]	< 25	F (F = >75-100% remaining)	D (D = >10- 25% remaining)	< 25
Cn1cnc(-c2ccc3c(c2)CN(C2CCC(=O)NC2=O)C3=O)c1-c1cc(F)ccc1F (centres unmarked) [Example 179]	< 25	E (E = >25-75% remaining)	D (D = >10- 25% remaining)	< 25
Cc1cc(C#N)ccc1-c1c(-c2ccc3c(c2)CN(C2CCC(=O)NC2=O)C3=O)ncn1C (centres unmarked) [Example 180]	≥ 25	F (F = >75-100% remaining)	E (E = >25-75% remaining)	≥ 25
Cn1cnc(-c2ccc3c(c2)CN(C2CCC(=O)NC2=O)C3=O)c1-c1ccc(Cl)s1 (centres unmarked) [Example 181]	≥ 25	E (E = >25-75% remaining)	C (C = 0-10% remaining)	< 25
CC(C)c1ccccc1-c1c(-c2ccc3c(c2)CN(C2CCC(=O)NC2=O)C3=O)ncn1C (centres unmarked) [Example 182]	≥ 25	F (F = >75-100% remaining)	E (E = >25-75% remaining)	< 25
CC(C)c1cccc(-c2c(-c3ccc4c(c3)CN(C3CCC(=O)NC3=O)C4=O)ncn2C)c1 (centres unmarked) [Example 183]	≥ 25	F (F = >75-100% remaining)	E (E = >25-75% remaining)	< 25
Cn1cnc(-c2ccc3c(c2)CN(C2CCC(=O)NC2=O)C3=O)c1-c1cc(F)cc(C#N)c1 (centres unmarked) [Example 185]	≥ 25	F (F = >75-100% remaining)	D (D = >10- 25% remaining)	< 25
Cn1cnc(-c2ccc3c(c2)CN(C2CCC(=O)NC2=O)C3=O)c1-c1cc(C#N)ccc1F (centres unmarked) [Example 186]	≥ 25	F (F = >75-100% remaining)	E (E = >25-75% remaining)	≥ 25
